The target in one assay is IDH1^R132H (Homo sapiens, UniProt O75874, R132H). Nature of the assay: NADPH depletion assay (diaphorase/resazurin), IDH1 R132H. Type of assay: biochemical. Conditions: 15 min preincubation, 60 min reaction, room temperature. The procedure: (§1) IDH mutated enzyme activity converting alpha-ketoglutarate to 2-hydroxyglutaric acid is measured using a NADPH depletion assay. In the assay the remaining cofactor is measured at the end of the reaction with the addition of a catalytic excess of diaphorase and resazurin, to generate a fluorescent signal in proportion to the amount of NADPH remaining. IDH1 WT enzyme as well as mutated isoforms IDH1^R132H, IDH1^R132C, and IDH2^R172K enzymes are commercially available proteins (see e.g. Sino Biological, Abcam, Active Motif or Creative BioMart).
Sequence of IDH1^R132H (O75874 whole entry R132H, canonical isoform): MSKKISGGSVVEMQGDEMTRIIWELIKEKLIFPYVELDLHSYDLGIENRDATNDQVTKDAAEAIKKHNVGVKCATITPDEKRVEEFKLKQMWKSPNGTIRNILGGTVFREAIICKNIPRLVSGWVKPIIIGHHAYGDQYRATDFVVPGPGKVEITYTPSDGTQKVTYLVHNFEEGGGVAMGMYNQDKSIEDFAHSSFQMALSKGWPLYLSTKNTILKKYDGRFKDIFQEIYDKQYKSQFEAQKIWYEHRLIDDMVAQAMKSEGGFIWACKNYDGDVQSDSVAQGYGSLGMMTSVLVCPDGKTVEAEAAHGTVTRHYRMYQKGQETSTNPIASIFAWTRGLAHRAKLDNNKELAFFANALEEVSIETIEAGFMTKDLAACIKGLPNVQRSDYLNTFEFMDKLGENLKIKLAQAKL
(§2) IDH1^R132H homodimer enzyme are diluted to 8 nM, in 10 μL of Assay Buffer (150 mM NaCl, 50 mM Tris-HCl pH 7.6, 10 mM MgCl2, 0.001% Triton X-100, 4 mM β-mercaptoethanol); 0.2 μL of test compound, previously serially diluted 1 to 3, >10 experimental points from 1 mM in DMSO, is added and the mixture is incubated for 15 minutes at room temperature. The reaction is started with the addition of 10 μL of Substrate Mix (12 μM NADPH, 3.4 mM alpha-ketoglutarate in Assay Buffer) and the mixture is incubated for 60 minutes at room temperature. The reaction is terminated with the addition of 5 μl of Detection Buffer (100 μg/mL diaphorase, 30 μM resazurin, in IX Assay Buffer), and is incubated for 15 minutes before reading on a ViewLux as platereader at Ex544/Em590.

Another assay has as its target IDH1 wild type enzyme (Homo sapiens, UniProt O75874). Nature of the assay: Enzymatic assay for IDH1 wild-type (NADPH forming assay). It is filed as biochemical. The conditions noted are these: 0.016 nM IDH1WT, 15 min preincubation. The procedure: IDH1WT enzymatic activity converting isocitric acid to alpha-ketoglutarate is measured using a NADPH forming assay. In the assay the forming cofactor is measured in continuous with the addition of a catalytic excess of diaphorase and resazurin, to generate a fluorescent signal in proportion to the amount of NADPH forming.
Compounds were preincubated with the enzyme, then the reaction was started by the addition of NADP+, isocitrate, diaphorase and a corresponding substrate, resazurin. Diaphorase reduces resazurin to the highly fluorescent resorufin with the concomitant oxidation of NADPH to NADP. Specifically, 0.2 μL of test compound, previously serially diluted 1 to 3, >10 experimental points from 1 mM in DMSO, was added to 0.016 nM IDH1WT enzyme in 10 μL of Assay Buffer (150 mM NaCl, 50 mM Tris-HCl pH 7.6, 10 mM MgCl2, 0.001% Triton X-100, 4 mM β-mercaptoethanol); the mixture is incubated for 15 minutes at room temperature. The reaction is started with the addition of 10 μL of Substrate Mix (400 μM NADP^+, 40 μM iso-citrate, 5 ugr/mL Diaphorase and 7 μM resazurin in Assay Buffer), the mixture is incubated at room temperature and the reaction is reading on a ViewLux as platereader at Ex544/Em590 in continuous.

The next assay addresses T1, IDH2^R172K (Homo sapiens, UniProt P48735, R172K).
T1 sequence (P48735 40-452 R172K): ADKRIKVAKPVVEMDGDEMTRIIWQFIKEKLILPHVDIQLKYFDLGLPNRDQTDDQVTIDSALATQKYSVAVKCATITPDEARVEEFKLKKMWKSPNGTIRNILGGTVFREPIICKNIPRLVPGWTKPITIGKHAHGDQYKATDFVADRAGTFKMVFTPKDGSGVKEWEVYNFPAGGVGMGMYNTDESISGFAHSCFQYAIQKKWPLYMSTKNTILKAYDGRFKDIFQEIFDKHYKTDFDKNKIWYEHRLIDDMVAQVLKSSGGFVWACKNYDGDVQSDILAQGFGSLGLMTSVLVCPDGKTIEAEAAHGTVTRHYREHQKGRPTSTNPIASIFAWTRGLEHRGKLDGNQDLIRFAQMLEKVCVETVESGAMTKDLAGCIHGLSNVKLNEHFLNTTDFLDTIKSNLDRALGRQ
Put plainly: NADPH depletion assay (diaphorase/resazurin), IDH2 R172K. Conditions: IDH2^R172K 16 nM, alpha-ketoglutarate 0.55 mM. It is filed as biochemical. The protocol:
as §1, §2
Compounds are assayed for their activity against IDH2^R172K following the same assay as above with the following modifications: IDH2^R172K and alpha-ketoglutarate final concentrations in the Assay Buffer is 16 nM and 0.55 mM, respectively.

For assay [1], the system named is cell lines HT-1080 (IDH1^R132C). Put plainly: Cellular assay: inhibition of 2HG production, LC-MS/MS. It is filed as cell-based. The conditions noted are these: Homo sapiens, 72 hr incubation, 2-HG in cell culture media, read-out: HT1080 2-HG IC50. The procedure:
Cell lines HT-1080 (commercially available) are maintained in E-MEM 10% FCS and incubated at 37° C. in a humidified 5% CO2 atmosphere.
Cells are seeded into 96 well black flat bottom plates at a density of 500 cells/well in 100 μL complete medium. After 24 hr the medium is replaced with 200 μL of fresh medium and compounds (dissolved into DMSO) are administrated to the cells using D300E Digital Dispenser (Tecan).
After 72 hr of incubation 100 μL from each well are collected and used for 2HG (R(−)-2-hydroxyglutarate) quantification. Levels of 2-HG in cell culture media are determined by LC-MS/MS. Cell supernatants (100 μL/well) are treated with 1 M aqueous trichloroacetic acid containing 130 μM of the internal standard 2-HG-d3 (20 μL/well) in a 96-well plate. The plates are sealed, mildly vortexed for 60 minutes, centrifuged at 4,000 RPM for 15 minutes, placed in a refrigerated autosampler taking care not to shake them, and aliquots of the upper part of the samples are directly injected in the chromatographic system. Calibration standards are obtained by ten folds dilution of aqueous 2-HG stock solutions with blank cell culture medium and denatured exactly in the same way as described above for samples. Samples and standards are assayed for 2-HG by reversed phase chromatography on a C18 column eluted with aqueous 0.15% formic acid and briefly washed with 90% methanol at the end of the run. 2-HG is determined by negative ion electrospray ionization with the internal standard method on a triple quadrupole mass spectrometer monitoring the MRM transitions 147>129 (2-HG) and 150>132 (2-HG-d3).
2-HG inhibition was calculated by comparing treated versus control data using Assay Explore (Symyx) software, with IC50 determined using a sigmoidal fitting algorithm.

The target of a further assay is IDH1^R132C (Homo sapiens, UniProt O75874, R132C). Put plainly: NADPH depletion assay (diaphorase/resazurin), IDH1 R132C. It is filed as biochemical. Conditions: IDH1^R132C 2 nM, alpha-ketoglutarate 0.14 mM; read-out: IDH1^R132C IC50. The protocol: as §1, §2
Sequence of IDH1^R132C (O75874 whole entry R132C): as the sequence (O75874 whole entry R132H, canonical isoform) above, with H132C counted along it
Compounds are assayed for their activity against IDH1^R132C following the same assay as above with the following modifications: IDH1^R132C and alpha-ketoglutarate final concentrations in the Assay Buffer is 2 nM and 0.14 mM, respectively.
(In general: The colour change of resazurin is a common sign of viable cells or microbes.)

Sequence of IDH1 wild type enzyme (O75874 whole entry): as the sequence (O75874 whole entry R132H, canonical isoform) above, with H132R counted along it

The IC50 is the concentration needed to halve the response being measured. Consider `C=CC(=O)N1CCN(C2(c3ccc([C@H](C)Nc4ncc5ccc(=O)n(C(C)C)c5n4)cc3)CCC(F)(F)CC2)CC1` [cpd 26, 2-{[(1S)-1-{4-[1-(4-acryloylpiperazin-1-yl)-4,4-difluorocyclohexyl]phenyl}ethyl]amino}-8-(propan-2-yl)pyrido[2,3-d]pyrimidin-7(8H)-one], for which the IC50 on IDH1^R132H was 3 nM; against IDH1 wild type enzyme it was 126 nM; at IDH2^R172K, 126 nM; in assay [1], 0.5 nM; on IDH1^R132C, 2 nM.
As to `CC(C)n1c(=O)ccc2cnc(N[C@@H](C)c3ccc(C4(N5CCN(C(=O)CCCl)CC5)CCOCC4)cc3)nc21` [cpd 23, 2-{[(1S)-1-(4-{4-[4-(3-chloropropanoyl)piperazin-1-yl]tetrahydro-2H-pyran-4-yl}phenyl)ethyl]amino}-8-(propan-2-yl) pyrido[2,3-d]pyrimidin-7(8H)-one], the IC50 in assay [1] was found to be 122 nM; at IDH1^R132C, 1460 nM.
Take `C=CC(=O)N1CCN(C(CC)(CC)c2ccc([C@H](C)Nc3ncc4ccc(=O)n(C(C)C)c4n3)cc2)CC1` [cpd 4, 2-{[(1S)-1-{4-[3-(4-acryloylpiperazin-1-yl)pentan-3-yl]phenyl}ethyl]amino}-8-(propan-2-yl)pyrido[2,3-d]pyrimidin-7(8H)-one]: the half-inhibitory concentration (IC50) came out at 3.8 nM against IDH1^R132H; 313 nM against IDH1 wild type enzyme; 22.8 nM against IDH2^R172K; 0.6 nM in assay [1]; 1.7 nM at IDH1^R132C.
Turning to `C=CC(=O)N1CCN(C2(c3ccc(C(C)(C)Nc4ncc5ccc(=O)n(C(C)C)c5n4)cc3)CCC(F)(F)CC2)CC1` [cpd 52, 2-[(2-{4-[1-(4-acryloylpiperazin-1-yl)-4,4-difluorocyclohexyl]phenyl}propan-2-yl)amino]-8-(propan-2-yl)pyrido[2,3-d]pyrimidin-7(8H)-one], the IC50 on IDH1^R132H was 14 nM; against IDH1 wild type enzyme, 321 nM; at IDH2^R172K, 322 nM; in assay [1], 4 nM; at IDH1^R132C, 9 nM.
With `CCC(=O)N1CCN(C2(c3ccc([C@H](C)Nc4ncc5ccc(=O)n(C(C)C)c5n4)cc3)CCOCC2)CC1` [cpd 8, 2-{[(1S)-1-{4-[4-(4-propanoylpiperazin-1-yl)tetrahydro-2H-pyran-4-yl]phenyl}ethyl]amino}-8-(propan-2-yl)pyrido[2,3-d]pyrimidin-7(8H)-one], the figures for the concentration for half-maximal inhibition (IC50) (in assay [1]; on IDH1^R132C) were 1930 nM and 1320 nM, respectively.
As to `C=CC(=O)N1CCN(C2(c3ccc([C@H](C)Nc4ncc5ccc(=O)n(C(C)C)c5n4)cc3)CCOCC2)CC1` [cpd 1, 2-{[(1S)-1-{4-[4-(4-acryloylpiperazin-1-yl)tetrahydro-2H-pyran-4-yl]phenyl}ethyl]amino}-8-(propan-2-yl)pyrido[2,3-d]pyrimidin-7(8H)-one], the IC50 against IDH1^R132H was 3.5 nM; on IDH1 wild type enzyme, 133 nM; at IDH2^R172K it was 111 nM; in assay [1], 2.4 nM; on IDH1^R132C it was 3.3 nM.
As to `C=CC(=O)N1CCN(C2(c3ccc(C4(Nc5ncc6ccc(=O)n(C(C)C)c6n5)CC4)cc3)CCOCC2)CC1` [cpd 30, 2-[(1-{4-[4-(4-acryloylpiperazin-1-yl)tetrahydro-2H-pyran-4-yl]phenyl}cyclopropyl)amino]-8-(propan-2-yl)pyrido[2,3-d]pyrimidin-7(8H)-one], the 50% inhibitory concentration (IC50) in assay [1] is 7.5 nM; at IDH1^R132C, 48 nM.
Consider `C=CC(=O)N1CCN(C2(c3ccc([C@H](C)Nc4ncc5ccc(=O)n(CC)c5n4)cc3)CCOCC2)CC1` [cpd 14, 2-{[(1S)-1-{4-[4-(4-acryloylpiperazin-1-yl)tetrahydro-2H-pyran-4-yl]phenyl}ethyl]amino}-8-ethylpyrido[2,3-d]pyrimidin-7(8H)-one], for which the IC50 in assay [1] came to 4.8 nM; at IDH1^R132C, 4.4 nM.
On the same counts, the results for `C=CC(=O)N1CCN([C@@](C)(CN2CCOCC2)c2ccc([C@H](C)Nc3ncc4ccc(=O)n(C(C)C)c4n3)cc2)CC1` [cpd 43, 2-{[(1S)-1-{4-[(2R)-2-(4-acryloylpiperazin-1-yl)-1-(morpholin-4-yl)propan-2-yl]phenyl}ethyl]amino}-8-(propan-2-yl) pyrido[2,3-d]pyrimidin-7(8H)-one] are 3 nM and 15 nM.
The matching figures for `[2H]C([2H])=C([2H])C(=O)N1CCN(C2(c3ccc([C@H](C)Nc4ncc5ccc(=O)n(C(C)C)c5n4)cc3)CCOCC2)CC1` [cpd 51, 8-(propan-2-yl)-2-({(1S)-1-[4-(4-{4-[(^2H3)prop-2-enoyl]piperazin-1-yl}tetrahydro-2H-pyran-4-yl)phenyl]ethyl}amino) pyrido[2,3-d]pyrimidin-7(8H)-one]: 2.4 nM and 7 nM.
On the same counts, the results for `C=CC(=O)N1CCN(C2(c3ccc([C@H](C)Nc4nc(N)c5ccc(=O)n(C(C)C)c5n4)cc3)CCOCC2)CC1` [cpd 19, 2-{[(1S)-1-{4-[4-(4-acryloylpiperazin-1-yl)tetrahydro-2H-pyran-4-yl]phenyl}ethyl]amino}-4-amino-8-(propan-2-yl) pyrido[2,3-d]pyrimidin-7(8H)-one] are 3 nM and 3.1 nM.
Take `C=CC(=O)N1CCN(C2(c3ccc([C@H](C)Nc4ncc5ccc(=O)n(C(C)C)c5n4)cc3)CCOC2)CC1` (stereo partly drawn) [cpd 17, 2-{[(1S)-1-{4-[3-(4-acryloylpiperazin-1-yl)tetrahydrofuran-3-yl]phenyl}ethyl]amino}-8-(propan-2-yl)pyrido[2,3-d]pyrimidin-7(8H)-one]: the IC50 in assay [1] was found to be 4.9 nM; at IDH1^R132C, 25.7 nM.
For `C=CC(=O)N1CCN(C(C)(C)c2ccc([C@H](C)Nc3ncc4ccc(=O)n(C(C)C)c4n3)cc2)CC1` [cpd 2, 2-{[(1S)-1-{4-[2-(4-acryloylpiperazin-1-yl)propan-2-yl]phenyl}ethyl]amino}-8-(propan-2-yl)pyrido[2,3-d]pyrimidin-7(8H)-one], the results for the half-inhibitory concentration (IC50) (in assay [1]; at IDH1^R132C) were 4.9 nM and 12 nM, respectively.

Values taken from patent US12521395B2, “Gem-disubstituted heterocyclic compounds and their use as IDH inhibitors” (NERVIANO MEDICAL SCIENCES S.R.L., priority 2019, dated 2026).
